Measurements from patent publication US20020147136A1, “Compounds for targeting endothelial cells, compositions containing the same and methods for their use” (priority 2000, published 2002).
Residues, ends and D or L forms follow the SMILES beside them.

Experiments:
HAEC = assay: TKPPR-bead binding to endothelial cells under flow; assay type: cell-based, human; settings: flow 1.91 mL/min, 37° C.
Description: Circular 40 mm diameter glass coverslips (Bioptechs, Cat No. 40-1313-0319) were first derivative by dipping in 3-aminopropyltriethoxysilane (Pierce, Cat No. 80370ZZ), 20% in acetone (HPLC grade, Sigma Aldrich Cat No. 27,072-5), rinsed in acetone, and air-dried. After autoclaving, the derivatized coverslips were placed into 60 mm round, sterile culture dishes, one coverslip per dish. Five mL of a Collagen I solution (Becton Dickinson, Cat No. 40236), 41.6 μg/mL in 20 mM acetic acid (adjusted to pH 6.7 with NaOH), was added to each coverslip-containing dish. After 15 min, 0.25 mL of 11.5 mg/mL bis(sulfosuccinimidyl) suberate (Pierce, Cat No. 21580ZZ) was added to each dish and mixed in by swirling. After a 105-minute incubation, the dishes were drained and 5 mL of sterile TBS (20 mM Tris-HCl, pH 7.5, 140 mM NaCl) was added to each dish. […]
Coverslips containing confluent HAEC were mounted into a Bioptechs FCS2 parallel plate flow cell mounted on an Olympus IMT-2 inverted microscope. […] Wall shear stress T, in dynes/cm^2, was calculated using the equation (Lawrence et al., Blood 75:227-237, 1990): [formula]
Bead binding of equal numbers of red fluorescent beads conjugated with TKPPR and green fluorescent beads conjugated with glycine was monitored after increasing lengths of perfusion and variable lengths of subsequent washing with the same solution lacking microspheres.

KDR/FIk-1 receptor = assay: Inhibition of phospho-tyrosine activation of KDR by VEGF in HUVEC; assay type: cell-based, human; settings: 200 μM
Description: The ability of various compositions comprising TKPPR monomers or multimers to inhibit phospho-tyrosine activation of the KDR/FIk-1 receptor by VEGF was evaluated using HUVECs. Nine 100 mm confluent dishes of cultured HUVEC cells were serum starved overnight in basal (EBM) medium without any additives. The next morning the plates were divided into three groups as follows:
1. 3 Plates had their medium changed to fresh EBM medium with no additions.
After 5 minutes at 37° C. the dishes were all drained and quickly washed 3 times with cold D-PBS with Ca and Mg (Life Technologies). Lysates were prepared from each treatment group using Triton X-100 lysis buffer (20 mM Tris pH 8.0, 137 mM NaCl, 10% glycerol, 1% Triton X-100, 2 mM EDTA Supplemented with 1 mM PMSF, […] Leupeptin and Aprotinin, 1 mM sodium orthovanadate, 50 mM sodium pyrophosphate, 100 mM sodium fluoride.) The pooled lysates from each group were precleared using Protein A beads from Sigma then incubated overnight with anti-KDR antibody (Sc-504 from Santa Cruz Biotech). The immune complexes were brought down by adding fresh Protein A beads. […] The intensity of phosphorylated (active) KDR for each treatment group was determined from the PY-20 blot then normalized to the total amount of KDR present as determined by re-probing with anti-KDR (sc-315).

effect on the ability of VEGF to activate KDR (KDR/FIk-1 receptor): no effect
Structure (SMILES): CC(O)C(N)C(=O)NC(CCCCN)C(=O)N1CCCC1C(=O)N1CCCC1C(=O)NC(CCCNC(=N)N)C(=O)O [TKPPR, L-Arginine, L-threonyl-L-lysyl-L-prolyl-L-prolyl] (H-TKPPR-OH; configuration not given here)
Beads bound at 1.53 dynes/cm^2 (HAEC): 86
